How the values were obtained:
AR [1] = assay: Nuclear and cytoplasmic fractionation with western blot, AR nuclear localization in C4-2 cells; assay type: cell-based, human; conditions: nuclear fraction normalized with topoisomerase, FIG. 1B
Description: In order to address the role of AhR and SRC in this process, a sub-cellular localization was confirmed by immunoblotting following cellular fractionation. […] Cells were washed with cold PBS and cellular fractions were isolated per manufactures instructions using a NE-PER Extraction kit. The nuclear and cytoplasmic fractions were analyzed by western blotting for AhR and AR protein expression. The relative level of cytoplasmic AhR & AR were normalized with β-tubulin expression and the relative level of nuclear AhR & AR were normalized with topoisomerase expression. Blots are representative of three independent experiments.

AhR [2] = assay: Cignal XRE luciferase reporter assay in C4-2 cells; assay type: cell-based, human; conditions: C4-2 cells transfected with XRE reporter, FIG. 2A
Description: XRE and ARE Binding: 4×10^4 Cells were plated in a 96 well plate. C4-2 cells were transfected with XRE and ARE reporter, as well as with positive and negative control reporter plasmids using attractene. After 16 hours of transfection, media was changed to standard assay media (DMEM+0.5% FBS+0.1 mM NEAA). Cells were grown for an additional 8 hours under normal cell conditions. After 24 hours of transfection, treat the cells and harvested cells 18 hours after treatment. A dual luciferase assay was performed after 42 hours of transfection, and promoter activity values are expressed as arbitrary florescence units (AFU). Experiments were performed in triplicate and the standard error is indicated.
The Cignal XRE and ARE luciferase reporter assays were utilized to determine the activity of AhR and AR signaling pathways in androgen independent (C4-2) prostate cancer cells in the presence and absence of inhibitors. C4-2 cells were transfected with an XRE reporter plasmid & ARE reporter plasmid, as well as with positive and negative control reporter plasmids using attractene. Following transfection, treatments were added to each appropriate plate. A dual luciferase assay was performed and promoter activity values are expressed as arbitrary florescence units (AFU).

AR [3] = assay: Cignal ARE luciferase reporter assay in C4-2 cells; assay type: cell-based, human; conditions: C4-2 cells transfected with ARE reporter, FIG. 2B
Description: The Cignal XRE and ARE luciferase reporter assays were utilized to determine the activity of AhR and AR signaling pathways in androgen independent (C4-2) prostate cancer cells in the presence and absence of inhibitors. C4-2 cells were transfected with an XRE reporter plasmid & ARE reporter plasmid, as well as with positive and negative control reporter plasmids using attractene. Following transfection, treatments were added to each appropriate plate. A dual luciferase assay was performed and promoter activity values are expressed as arbitrary florescence units (AFU). Each bar represents mean±SEM (n=3) and were analyzed by student t-test. (*) denotes statistically significant differences (*P<0.0001).

[4] = tested on: C4-2 prostate cancer cells; assay: Promega CellTiter 96 Cell Proliferation Assay; assay type: cell-based, human; conditions: 50 μM CH223191, 30 μM PP2 alone or in combination
[5] = tested on: C4-2 prostate cancer cells; assay: Cell cycle analysis; assay type: cell-based, human; conditions: C4-2 cells, 72 hrs; 50 μM CH223191, 30 μM PP2 alone or in combination, FIG. 4B
AhR [6] = biological target: T1, AhR (Homo sapiens, UniProt P35869); conditions: even at 100 micromolar; cited from earlier work
T1 sequence (P35869 11-848): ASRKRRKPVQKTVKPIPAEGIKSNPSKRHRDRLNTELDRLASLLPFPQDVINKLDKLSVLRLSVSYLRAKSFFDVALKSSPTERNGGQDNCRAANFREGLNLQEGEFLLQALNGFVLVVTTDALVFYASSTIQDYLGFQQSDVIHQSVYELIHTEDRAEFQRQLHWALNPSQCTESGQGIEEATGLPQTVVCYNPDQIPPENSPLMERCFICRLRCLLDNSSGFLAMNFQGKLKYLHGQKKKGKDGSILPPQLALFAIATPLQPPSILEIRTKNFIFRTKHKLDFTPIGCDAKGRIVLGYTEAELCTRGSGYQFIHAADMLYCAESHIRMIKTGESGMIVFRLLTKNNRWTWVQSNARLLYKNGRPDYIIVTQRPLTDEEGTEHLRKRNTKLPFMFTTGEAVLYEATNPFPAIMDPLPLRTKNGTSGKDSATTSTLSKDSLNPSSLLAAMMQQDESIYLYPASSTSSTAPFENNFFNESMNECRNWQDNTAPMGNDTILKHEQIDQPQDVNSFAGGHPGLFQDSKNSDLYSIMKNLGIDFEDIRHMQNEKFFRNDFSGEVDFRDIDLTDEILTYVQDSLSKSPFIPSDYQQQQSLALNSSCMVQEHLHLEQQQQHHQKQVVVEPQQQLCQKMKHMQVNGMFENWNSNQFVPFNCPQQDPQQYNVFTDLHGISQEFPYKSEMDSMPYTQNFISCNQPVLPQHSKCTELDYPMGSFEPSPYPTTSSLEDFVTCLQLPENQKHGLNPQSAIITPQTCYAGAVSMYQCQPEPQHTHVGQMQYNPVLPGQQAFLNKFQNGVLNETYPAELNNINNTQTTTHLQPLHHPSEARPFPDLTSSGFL

AhR [7] = biological target: T1, AhR; conditions: cited from earlier work
estrogen receptor = biological target: T2, estrogen receptor (Homo sapiens, UniProt P03372); conditions: cited from earlier work
T2 sequence (P03372 1-595): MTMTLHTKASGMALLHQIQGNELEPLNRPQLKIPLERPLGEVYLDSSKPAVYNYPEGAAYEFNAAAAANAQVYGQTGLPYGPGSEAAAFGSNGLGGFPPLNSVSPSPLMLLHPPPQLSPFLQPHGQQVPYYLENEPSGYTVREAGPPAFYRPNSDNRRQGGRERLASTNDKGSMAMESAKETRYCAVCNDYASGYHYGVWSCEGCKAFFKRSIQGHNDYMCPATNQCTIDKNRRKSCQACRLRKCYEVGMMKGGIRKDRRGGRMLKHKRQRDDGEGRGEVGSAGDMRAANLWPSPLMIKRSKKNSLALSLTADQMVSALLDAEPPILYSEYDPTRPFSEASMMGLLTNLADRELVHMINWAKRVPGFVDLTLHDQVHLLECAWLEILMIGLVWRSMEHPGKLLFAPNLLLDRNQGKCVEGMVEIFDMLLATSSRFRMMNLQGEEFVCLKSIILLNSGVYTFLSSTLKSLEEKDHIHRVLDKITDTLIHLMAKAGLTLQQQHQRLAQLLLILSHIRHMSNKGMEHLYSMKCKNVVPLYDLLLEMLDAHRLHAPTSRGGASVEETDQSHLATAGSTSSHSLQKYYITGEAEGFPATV

AR [8] = assay: qRT-PCR of AR mRNA expression in C4-2 cells; conditions: 50 μM CH223191 or 30 μM PP2 alone or in combination, 72 h, normalized to L-19
Description: (§1) RNA Extraction and Quantitative qRT-PCR Analysis: Total RNA was isolated from cell monolayers grown in 100 mm tissue culture dishes using RNeasy Mini Kit (Qiagen). 2 μg of the total RNA was reverse-transcribed using the Superscript II kit (Invitrogen), according to the manufacturer's recommendations. The cDNA served as a template in a 25 μl reaction mixture and was processed using the following protocol: an initial denaturation at 95° C. for 3 min, followed by 39 amplification cycles (95° C. for 10 s and 55-65° C. for 30 s), 95° C. for 10 s, 65° C. for 5 s and 95° C. for 50 s. The 25 μl qPCR reaction mixture was mixed with GoTaq qPCR Master Mix (Promega). Melt curve analyses were performed after each run to ensure a single product. Relative gene expression was determined using the ΔΔCq calculation method.
(§2) Primers to amplify the 470-bp cDNA fragment encoding L19 were used as an internal control. L-19: Forward (5′-3′) [sequence] & Reverse (5′-3′) [sequence].
(§3) Each bar represents mean±SEM (n=3) and were analyzed by student t-test. (*) denotes statistically significant differences (*P<0.05) compared to control.

AhR [9] = assay: qRT-PCR of AhR mRNA expression in C4-2 cells; conditions: 50 μM CH223191 or 30 μM PP2 alone or in combination, 72 h, normalized to L-19
Description: as §1, §2, §3

KLK3 = conditions: C4-2 cells, 50 μM CH223191 or 30 μM PP2 alone or in combination, 72 h, normalized to L-19
Description: as §1, §2, §3

CYP1B1 = assay: qRT-PCR of CYP1B1 mRNA expression in C4-2 cells; conditions: 50 μM CH223191 or 30 μM PP2 alone or in combination, 72 h, normalized to L-19
Description: as §1, §2, §3

Cc1ccccc1/N=N/c1ccc(NC(=O)c2ccnn2C)c(C)c1 [CH223191, 2-Methyl-2H-pyrazole-3-carboxylic acid (2-methyl-4-o-tolylazo-phenyl)-amide]
presence of AR in the nucleus (AR nuclear localization) (AR [1]): reduced | decrease in AhR promoter activity (XRE binding) compared to DMSO (AhR [2]): 30% | reduction of AR promoter activity compared to DMSO in ARE binding assay (AR [3]): 70% | growth of C4-2 cells ([4]; 48 and 72 hours): significantly inhibited | decrease in overall growth rate compared to DMSO ([4]; after 72 hours of exposure): 25% | percent of cells in the G0/G1 phase of the cell cycle [5]: increase | stimulation of AhR-dependent transcription (agonist activity) (AhR [6]): did not stimulate | TCDD-mediated nuclear translocation and DNA binding of AhR (AhR [7]): inhibited | affinity for the estrogen receptor (estrogen receptor): no affinity | reduction of AR gene expression (AR [8]): 60% | reduction of AhR gene expression compared to control (AhR [9]): more than twofold | decrease in KLK3 mRNA expression (KLK3): 65% | reduction of CYP1B1 gene expression compared to control (CYP1B1): more than twofold

Reference: patent US11103518B2, “Prostate cancer treatment via synergistic inhibition of aryl hydrocarbon receptor (AhR) and SRC” (Clark Atlanta University, Inc., priority 2016, dated 2021)
